Columns and labels:
serotonin 1A receptor = target: T1, serotonin 1A receptor (Rattus norvegicus, UniProt P19327); assay: Binding test on [3H] 8-hydroxy-dipropylaminotetralin (serotonin 1A receptor); details: [3H] 8-OH-DPAT 0.5 nM, receptor fraction of rat hippocampus; read-out: 5HT1a
T1 construct: To the receptor fraction of the hippocampus were added a test compound and 0.5 nM of [^3H]; 8-hydroxy-dipropylaminotetralin; from tissue; host or cells: SD rat hippocampus, membrane (receptor) fraction
T1 sequence (P19327 1-422): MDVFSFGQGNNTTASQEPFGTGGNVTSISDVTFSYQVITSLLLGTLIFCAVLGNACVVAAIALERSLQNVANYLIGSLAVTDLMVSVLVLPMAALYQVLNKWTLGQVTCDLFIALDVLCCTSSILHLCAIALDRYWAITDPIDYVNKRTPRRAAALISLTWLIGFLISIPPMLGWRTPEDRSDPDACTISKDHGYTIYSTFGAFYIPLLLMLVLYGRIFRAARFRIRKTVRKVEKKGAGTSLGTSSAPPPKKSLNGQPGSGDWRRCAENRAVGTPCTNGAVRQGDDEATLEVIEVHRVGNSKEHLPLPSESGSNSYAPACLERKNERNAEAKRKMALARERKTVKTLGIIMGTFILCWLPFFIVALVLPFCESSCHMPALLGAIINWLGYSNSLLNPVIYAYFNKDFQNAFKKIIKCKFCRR

serotonin 2 receptor = serotonin 2 receptor (Rattus norvegicus, UniProt P14842); assay: Binding test on [3H] ketanserin (serotonin 2 receptor); details: [3H] ketanserin 0.3 nM, receptor fraction of rat cerebral cortex; read-out: 5HT2
α1 adrenalin receptor = assay: Binding test on [3H] prazosin (α1 adrenalin receptor); parameters: species or system rat; details: [3H] prazosin about 0.2 nM, receptor fraction of rat cerebral cortex

Chain of serotonin 2 receptor (P14842 whole entry): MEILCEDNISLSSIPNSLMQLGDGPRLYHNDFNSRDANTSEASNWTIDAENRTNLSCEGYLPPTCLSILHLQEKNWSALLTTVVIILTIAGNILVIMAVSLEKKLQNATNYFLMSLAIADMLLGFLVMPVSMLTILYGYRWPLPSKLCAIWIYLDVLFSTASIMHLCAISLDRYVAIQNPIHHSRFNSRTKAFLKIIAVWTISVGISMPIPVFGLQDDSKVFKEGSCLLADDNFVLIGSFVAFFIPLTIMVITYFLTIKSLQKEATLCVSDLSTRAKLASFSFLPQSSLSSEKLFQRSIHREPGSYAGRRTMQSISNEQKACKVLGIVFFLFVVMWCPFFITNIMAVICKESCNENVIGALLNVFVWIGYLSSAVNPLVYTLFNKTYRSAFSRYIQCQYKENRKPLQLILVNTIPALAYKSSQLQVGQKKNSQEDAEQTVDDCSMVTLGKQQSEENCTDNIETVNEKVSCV

Ki (serotonin 1A receptor)	melting point	Ki (serotonin 2 receptor)	Ki (α1 adrenalin receptor)	SMILES
2.87 nM	118 to 119 °C	1.56 nM	116 nM	CCC(=O)NCc1ccc2ccn(C3CCN(CCc4ccccc4F)CC3)c2c1 [Example 380, 1-[1-(2-fluorophenethyl)piperidin-4-yl]-6-propionylaminomethylindole]
0.08 nM	121 to 122 °C	30.4 nM	41.3 nM	CS(=O)(=O)NCc1ccc2ccn(C3CCN(CCc4ccc(F)cc4)CC3)c2c1 [Example 322, 1-[1-(4-fluorophenethyl)piperidin-4-yl]-6-methanesulfonamidomethylindole]
0.78 nM	156 to 157 °C	12.6 nM	144 nM	O=C1CNC(=O)N1Cc1ccc2ccn(C3CCN(CCc4ccc(F)cc4)CC3)c2c1 [Example 353, 1-[1-(4-fluorophenethyl)piperidin-4-yl]-6-(2,4-imidazolidinedion-3-yl)methylindole]
1.34 nM	163.3 to 163.8 °C	2.29 nM	84.4 nM	O=C(Cc1ccc2ccn(C3CCN(CCc4ccc(F)cc4)CC3)c2c1)NCCF [Example 310, 1-[1-(4-fluorophenethyl)piperidin-4-yl]-6-(2-fluoroethyl)carbamoylmethylindole]
2.41 nM	115 to 116 °C	0.97 nM	21.6 nM	CN(C)C(=O)NCc1ccc2ccn(C3CCN(CCc4ccc(F)cc4)CC3)c2c1 [Example 385, 1-[1-(4-fluorophenethyl)piperidin-4-yl]-6-N,N-dimethylaminocarbonylaminomethylindole]
2.24 nM	173.8 to 174.6 °C	0.65 nM	44.3 nM	O=C(Cc1ccc2ccn(C3CCN(CCc4ccc(F)cc4)CC3)c2c1)NCC1OCCO1 [Example 347, 1-[1-(4-fluorophenethyl)piperidin-4-yl]-6-(1,3-dioxolan-2-ylmethyl)carbamoylmethylindole]
0.11 nM	118 to 119 °C	> 20 nM	339 nM	OCCOc1ccc2ccn(C3CCN(CCc4ccc(F)cc4)CC3)c2c1 [Example 330, 1-[1-(4-fluorophenethyl)piperidin-4-yl]-6-hydroxyethoxyindole]
5.34 nM	151 to 152 °C	1.81 nM	120 nM	O=C(CO)NCc1ccc2ccn(C3CCN(CCc4ccccc4F)CC3)c2c1 [Example 383, 1-[1-(2-fluorophenethyl]piperidin-4-yl]-6-hydroxyacetamidomethylindole]
0.42 nM	79 to 80 °C	3.11 nM	61.6 nM	O=C(NCc1ccc2ccn(C3CCN(CCc4ccc(F)cc4)CC3)c2c1)C(F)F [Example 365, 1-[1-(4-fluorophenethyl)piperidin-4-yl]-6-difluoroacetamidomethylindole]
1.04 nM	141 to 142 °C	2.64 nM	99 nM	CCC(=O)NCc1ccc2ccn(C3CCN(CCc4ccc(F)cc4)CC3)c2c1 [Example 327, 1-[1-(4-fluorophenethyl)piperidin-4-yl]-6-propionylaminomethylindole]
3.85 nM	113.2 to 114.4 °C	1.02 nM	123 nM	COCCNC(=O)Cc1ccc2ccn(C3CCN(CCc4ccc(F)cc4)CC3)c2c1 [Example 309, 1-[1-(4-fluorophenethyl)piperidin-4-yl]-6-(2-methoxyethyl)carbamoylmethylindole]
< 0.2 nM	195 to 196 °C	> 20 nM	31.7 nM	CC(=O)Nc1ccc2ccn(C3CCN(CCc4ccc(F)cc4)CC3)c2c1 [Example 339, 1-[1-(4-fluorophenethyl)piperidin-4-yl]-6-acetamidoindole]
0.11 nM	133 to 135 °C	8.28 nM	77 nM	CS(=O)(=O)c1ccc2ccn(C3CCN(CCc4ccc(F)cc4)CC3)c2c1 [Example 331, 1-[1-(4-fluorophenethyl)piperidin-4-yl]-6-methanesulfonylindole]
0.65 nM	143 to 145 °C	10.9 nM	47 nM	O=S(=O)(CCCCl)NCc1ccc2ccn(C3CCN(CCc4ccc(F)cc4)CC3)c2c1 [Example 325, 1-[1-(4-fluorophenethyl)piperidin-4-yl]-6-(3-chloropropyl)sulfonamidomethylindole]
0.14 nM	131 to 133 °C	> 20 nM	203 nM	OCCCc1ccc2ccn(C3CCN(CCc4ccc(F)cc4)CC3)c2c1 [Example 321, 1-[1-(4-fluorophenethyl)piperidin-4-yl]-6-(3-hydroxypropyl)indole]
0.1 nM	80 to 81 °C	> 20 nM	60.9 nM	CCCS(=O)(=O)NCc1ccc2ccn(C3CCN(CCc4ccc(F)cc4)CC3)c2c1 [Example 324, 1-[1-(4-fluorophenethyl)piperidin-4-yl]-6-n-propylsulfonamidomethylindole]
0.07 nM	172 to 175 °C	> 20 nM	21.3 nM	CNS(=O)(=O)Cc1ccc2ccn(C3CCN(CCc4ccc(F)cc4)CC3)c2c1 [Example 338, 1-[1-(4-fluorophenethyl)piperidin-4-yl]-6-(N-methylsulfamoylmethyl)indole]
0.22 nM	148 to 149 °C	8.12 nM	88.5 nM	CC(=O)NCc1ccc2ccn(C3CCN(CCc4ccc(Cl)cc4)CC3)c2c1 [Example 349, 1-[1-(4-chlorophenethyl)piperidin-4-yl]-6-acetamidomethylindole]
1.22 nM	97 to 98 °C	4.79 nM	90.5 nM	CC(C)C(=O)NCc1ccc2ccn(C3CCN(CCc4ccc(F)cc4)CC3)c2c1 [Example 354, 1-[1-(4-fluorophenethyl)piperidin-4-yl]-6-isobutyrylaminomethylindole]
< 0.2 nM	213 to 215 °C	> 20 nM	53.7 nM	CS(=O)(=O)Oc1ccc2ccn(C3CCN(CCc4ccc(F)cc4)CC3)c2c1 [Example 336, 1-[1-(4-fluorophenethyl)piperidin-4-yl]-6-methanesulfonyloxyindole]
2.92 nM	190.5 to 192.2 °C (dec.)	60.5 nM	143 nM	O=C(Cc1ccc2ccn(C3CCN(CCc4ccc(F)cc4)CC3)c2c1)N1CCC(O)CC1 [Example 302, 1-[1-(4-fluorophenethyl)piperidin-4-yl]-6-(4-hydroxypiperidin-1-ylcarbonylmethyl)indole]
0.85 nM	171.9 to 172.8 °C	2.54 nM	37.8 nM	NC(=O)NCc1ccc2ccn(C3CCN(CCc4ccc(F)cc4)CC3)c2c1 [Example 393, 1-[1-(4-fluorophenethyl)piperidin-4-yl]-6-ureidomethylindole]
0.98 nM	131.1 to 131.9 °C	4.17 nM	226 nM	CCCNC(=O)Cc1ccc2ccn(C3CCN(CCc4ccc(F)cc4)CC3)c2c1 [Example 297, 1-[1-(4-fluorophenethyl)piperidin-4-yl]-6-(n-propylcarbamoylmethyl)indole]
1.92 nM	134 to 135 °C	11.4 nM	123 nM	CC(=O)NCc1ccc2ccn(C3CCN(CCc4cccc(F)c4)CC3)c2c1 [Example 350, 1-[1-(3-fluorophenethyl)piperidin-4-yl]-6-acetamidomethylindole]

SMILES	Ki (serotonin 1A receptor)	melting point	Ki (serotonin 2 receptor)	Ki (α1 adrenalin receptor)
CNC(=O)Cc1ccc2ccn(C3CCN(CCc4ccccc4F)CC3)c2c1 [Example 342, 1-[1-(2-fluorophenethyl)piperidin-4-yl]-6-methylcarbamoylmethylindole]	0.65 nM	136.5 to 137.4 °C	38.1 nM	25 nM
NC(=O)Cc1ccc2ccn(C3CCN(CCc4ccc(F)cc4)CC3)c2c1 [Example 305, 1-[1-(4-fluorophenethyl)piperidin-4-yl]-6-carbamoylmethylindole]	0.06 nM	159.1 to 160.8 °C	3.29 nM	35.9 nM
CCNC(=O)Cc1ccc2ccn(C3CCN(CCc4ccc(F)cc4)CC3)c2c1 [Example 294, 1-[1-(4-fluorophenethyl)piperidin-4-yl]-6-(ethylcarbamoylmethyl)indole]	1.05 nM	159.6 to 160.1 °C	2.86 nM	80.7 nM
CN(C)C(=O)Cc1ccc2ccn(C3CCN(CCc4ccc(F)cc4)CC3)c2c1.O=C(O)C(=O)O [Example 301, 1-[1-(4-fluorophenethyl)piperidin-4-yl]-6-dimethylcarbamoylmethylindole Oxalate]	0.8 nM	170.1 to 170.6 °C	21.9 nM	66.9 nM
O=C(Cc1ccc2ccn(C3CCN(CCc4ccccc4F)CC3)c2c1)NCCO [Example 346, 1-[1-(2-fluorophenethyl)piperidin-4-yl]-6-(2-hydroxyethyl)carbamoylmethylindole]	13.5 nM	127.7 to 128.6 °C	1.49 nM	116 nM

— US6579881B2 (Eisai Co., Ltd., priority 1997, dated 2003)
